Laboratory results taken from US20240276935A1, “METHODS FOR ENHANCING DISEASE RESISTANCE AND INCREASING BIOMASS YIELD AND SECONDARY METABOLITE QUANTITIES IN CANNABIS SATIVA UTILIZING PLANT DEFENSE-RESPONSE ELICITORS” (priority 2023, published 2024).

Key:
cannabis sativa = conditions: cited from earlier work
Fusarium sp. = assay: Protective effect on rooting clones of C. sativa against Fusarium sp. (Table 1); format: in vivo; conditions: for Total Alive: cultivar III clones alive; for Total Alive / Total Dead: total of 30 replicate clones per elicitor treatment; for Total Dead: cultivar III clones dead; for Mean Survival: rooting clones of cultivar III, sprayed daily ~2 ml solution/clone, inoculated with Fusarium culture (~10^3 Cfu/ml), survival one week later, three repeats of 10 clones
Method: Cultivar III was shown from the data in FIG. 1B to be most susceptible to mold pathogens. Thus, 10 clones of cultivar III were selected to be treated with formulations containing bacterial/fungal PAMP elicitor compounds (as listed in Table 1) formulated in water. Treatments were performed by spraying the clones daily with ˜2 ml solution/clone, starting one week after cutting. Plants were inoculated two weeks after cutting (one week after treatment application) by applying 10 ml Fusarium culture (˜10^3 Cfu/ml) to the water tray. After one hour, clones were removed and placed in clean water trays. Survival was assessed one week later upon reaching the vegetative growth phase. The experiment was repeated three times for a total of 30 replicate clones per elicitor treatment.

C. sativa = test system: C. sativa; parameters: species or system Cannabis sativa; conditions: in vivo
medical cannabis variety = conditions: 0.1 mM, foliar application; cited from earlier work

SMILES	A9-THC in extract (cannabis sativa; 1 M of SA (highest))	CBD in extract (cannabis sativa; 1 M of SA (highest))	TPC, TFC, TCC, Chl a, Chl b, and antioxidant capacity (cannabis sativa; 1 M treatment, lowest in control plants)	Total Alive (Fusarium sp.)	Total Dead (Fusarium sp.)	Mean Survival (Fusarium sp.)	Yield (g/plant), Cultivar I (C. sativa)	Yield (g/plant), Cultivar II (C. sativa)	Yield (g/plant), Cultivar III (C. sativa)	increase of CBDA content in inflorescences (medical cannabis variety)
O=C(O)c1ccccc1O [SA, salicylic acid]	22.84%	37.81%	highest							
CC(=O)N[C@H]1C(O)O[C@H](CO)[C@@H](O)[C@@H]1O (stereo partly drawn) [N-Acetyl-D-Glucosamine (4), N-Acetyl-D-Glucosamine]				21	9	70.0%	11.6 ± 1.7 g/plant	10.7 ± 1.9 g/plant	9.2 ± 0.7 g/plant	
O=C(O)[C@H]1OC(O)[C@H](O)[C@@H](O)[C@H]1O (stereo partly shown) [D Galactoronic Acid]							13.5 ± 1.8 g/plant	11.5 ± 2.1 g/plant	10.2 ± 1.8 g/plant	
CC(=O)N[C@H]1C(O)O[C@H](CO)[C@@H](O)[C@@H]1O[C@H](C)C(=O)O (stereo partly shown) [N-Acetylmuramic Acid]				21	9	70.0%	13.4 ± 2.1 g/plant	11.5 ± 2^ g/plant	11.5 ± 1.6 g/plant	
COc1cc(/C=C/CO)ccc1O [Coniferyl Alcohol]							13.6 ± 2.9 g/plant	12.8 ± 1.3 g/plant	12.4 ± 1.8 g/plant	
CC/C=C\CC1C(=O)CCC1CC(=O)OC (stereo not shown) [MeJA, methyl jasmonate]										15.6%
COc1cc(/C=C/CO)cc(OC)c1O [Sinapyl Alcohol (Syringil monomer), Sinapyl Alcohol]							16.4 ± 1.2 g/plant	12.9 ± 2.1 g/plant	13.5 ± 2.6 g/plant	
OC/C=C/c1ccc(O)cc1 [Paracoumaryl Alcohol]							14.7 ± 2.5 g/plant	9.2 ± 1 g/plant	11.9 ± 2.9 g/plant	
